Data: patent US8884011B2, “Nucleotide analogues as precursor molecules for antivirals” (Centre National de la Recherche Scientifique-CNRS, priority 2006, dated 2014)
Where two headings read alike, the source gives them in different places.

Columns and labels:
K65R mutant RT of HIV-1 [1] = biological target: K65R mutant RT of HIV-1 (Human immunodeficiency virus type 1 group M subtype B, UniProt P04585, K652R); experiment: biochemical; format: biochemical
wild-type RT of HIV-1 = wild-type RT of HIV-1 (Human immunodeficiency virus type 1 group M subtype B, UniProt P04585); experiment: biochemical; format: biochemical; conditions: wild-type RT; for Selectivity = (kpol/Kd) natural nucleotide/(kpol/Kd) nucleotide analogue (discrimination): versus dATP
K65R mutant RT of HIV-1 [2] = experiment: biochemical; format: biochemical
HIV-1-LAI = experiment: Anti-HIV test in CMSP cultures infected by HIV-1-LAI (RT activity in supernatants); format: cell-based
HBV [3] = experiment: Anti-HBV test in infected HepAD38 cells (intracellular viral DNA by Q-PCR); format: cell-based
Experimental: These are hepatoma cells that have been stably transfected with a cDNA copy of the pregenomic RNA of wild-type virus. Withdrawal of tetracycline from the culture medium results in the initiation of viral replication. This offers the advantage, in contrast to the Hep G2.2.15 cell lines commonly used, that there is no, or very limited background viral DNA synthesis. Cells were cultured at 37° C. in a humidified 5% CO2/air atmosphere in seeding medium, DMEM/Ham's F12 (50/50) supplemented with 10% (v/v) heat-inactivated fetal calf serum, 100 IU/ml penicillin, 50 μg/ml streptomycin, 100 Ξg/ml kanamycin, 400 μg/ml G418, and 0.3 μg/ml tetracycline. […] After 2-3 days the cultures were induced for viral production by washing with prewarmed PBS and were fed with […] assay medium (seeding medium without tetracycline and G418) with or without the antiviral compounds. Medium was changed after 3 days. The antiviral effect was quantified by measuring levels of intracellular viral DNA at day 6 post-induction, by a real time quantitative PCR (Q-PCR) method. Total cellular DNA was extracted from the cells by means of a commercial kit. […] The reaction was analyzed using a SDS 7000. A plasmid containing the full length insert of the HBV genome was used to prepare the standard curve. The amount of viral DNA produced in treated cultures was expressed as a percentage of the mock treated samples. […] The cytostatic effect of the various compounds was assessed employing the parent hepatoma cell line HepG2. The effect of the compounds on exponentially growing HepG2 cells was evaluated by means of the MTS method. Briefly, cells were seeded at a density of 3000/well (96 well plate) and were allowed to proliferate for 3 days in the absence or presence of compounds after which the optical density was measured with a 96-well plate reader and cell density was determined.

[4] = Cytotoxicity by MTT test in cultures of uninfected CMSP; conditions: human
[5] = Cytostatic effect on parent hepatoma cell line HepG2 (MTS method); conditions: human
HBV [6] = experiment: Anti-HBV test in infected Huh7 cells; format: cell-based; conditions: Hepatitis B virus, Huh-7; infected Huh7 cells; 50% reduction of viral DNA; read-out: EC50 (μM) HBV

Row | SMILES | Kd (K65R mutant RT of HIV-1 [1]; K65R mutant RT) | kpol (K65R mutant RT of HIV-1 [1]; K65R mutant RT) | kpol/Kd (K65R mutant RT of HIV-1 [1]; K65R mutant RT) | kpol (wild-type RT of HIV-1) | kpol/Kd (wild-type RT of HIV-1) | Kd (wild-type RT of HIV-1; read-out: Kd) | Kd (wild-type RT of HIV-1; unit inferred, read-out: affinities of the RT for the analogues (Kd)) | Selectivity = (kpol/Kd) natural nucleotide/(kpol/Kd) nucleotide analogue (K65R mutant RT of HIV-1 [1]; K65R mutant RT, versus dATP) | reduction in the incorporation velocity of the nucleotide (factor) (K65R mutant RT of HIV-1 [2]) | Selectivity = (kpol/Kd) natural nucleotide/(kpol/Kd) nucleotide analogue (discrimination) (wild-type RT of HIV-1) | Kd (K65R mutant RT of HIV-1 [1]) | Kd (wild-type RT of HIV-1; affinities of the RT for the analogues (Kd), unit inferred) | incorporation velocity, times lower than that of natural nucleotide dATP (wild-type RT of HIV-1) | IT (selectivity index, TC50/EC50) (HIV-1-LAI; HIV-1 (LAI), CMSP) | EC50 (HIV-1-LAI; Human immunodeficiency virus 1, 168 h, CMSP cultures, 7 days, RT activity in supernatants, read-out: EC50 (μM) HIV-1 (LAI)) | SI selectivity index (TC50/EC50) (HBV [3]; HBV, HepAD38 cells) | EC50 (HBV [3]; Hepatitis B virus, 144 h, infected HepAD38 cells, 50% reduction of viral DNA, day 6 post-induction) | CC50 at 7 days [4] | CC50 at 3 days [5] | EC50 (HBV [6])
1 | Nc1ncnc2c1ncn2[C@H]1C[C@H](O)[C@@H](COP(=O)(O)OP(=O)(O)OP(=O)(O)O)O1 [dATP] | 6.89 µM | 11.63 s⁻¹ | 1.69 | 50.16 s⁻¹ | 6.71 | 7.47 µM | 7.5 µM |  |  |  |  |  |  |  |  |  |  |  |  | 
2 | Nc1ncnc2c1ncn2CCOCP(=O)(O)OP(=O)(O)OP(=O)(O)O [PMEApp, PMEA diphosphate] | 7.7 µM | 0.75 s⁻¹ | 0.1 | 6.8 s⁻¹ | 0.86 | 7.9 µM |  | 16.9 | 9 | 7.8 |  |  |  |  |  |  |  |  |  | 
3 | Nc1ncnc2c1ncn2CCOCP(O)(=S)OP(=O)(O)OP(=O)(O)O (centres unmarked) [Compound 12, 9-[2-(diphosphorylthiophosphonomethoxy)ethyl]adenine] |  | 0.03 s⁻¹ | 0.04 | 0.55 s⁻¹ | 0.5 |  |  |  | 18 | 14.5 | 0.7 µM | 1.2 µM | 90 times |  |  |  |  |  |  | 
4 | Nc1ncnc2c1ncn2CCOCP(=O)(O)O [PMEA, 9-(2-(phosphonomethoxy)ethyl)adenine] |  |  |  |  |  |  |  |  |  |  |  |  |  | >5 | 1.9 µM | >23 | 8.8 µM | > 19 µM | > 200 µM | 6 µM
